Like-named read-outs stand apart in the source and are kept apart here. Values belong to the compound of their own block, whether it stands above or below them.
Key:
NSD2 = target: T1, NSD2 (Homo sapiens, UniProt O96028, T1150A); test: biochemical; parameters: MTase-Glo bioluminescence methyltransferase assay, full-length NSD2 with HeLa nucleosomes; conditions: read-out: MTase-Glo IC50
T1 construct: full length (residues 2-1365), N-terminal His tag, insect cell/baculovirus
T1 sequence (O96028 2-1365 T1150A): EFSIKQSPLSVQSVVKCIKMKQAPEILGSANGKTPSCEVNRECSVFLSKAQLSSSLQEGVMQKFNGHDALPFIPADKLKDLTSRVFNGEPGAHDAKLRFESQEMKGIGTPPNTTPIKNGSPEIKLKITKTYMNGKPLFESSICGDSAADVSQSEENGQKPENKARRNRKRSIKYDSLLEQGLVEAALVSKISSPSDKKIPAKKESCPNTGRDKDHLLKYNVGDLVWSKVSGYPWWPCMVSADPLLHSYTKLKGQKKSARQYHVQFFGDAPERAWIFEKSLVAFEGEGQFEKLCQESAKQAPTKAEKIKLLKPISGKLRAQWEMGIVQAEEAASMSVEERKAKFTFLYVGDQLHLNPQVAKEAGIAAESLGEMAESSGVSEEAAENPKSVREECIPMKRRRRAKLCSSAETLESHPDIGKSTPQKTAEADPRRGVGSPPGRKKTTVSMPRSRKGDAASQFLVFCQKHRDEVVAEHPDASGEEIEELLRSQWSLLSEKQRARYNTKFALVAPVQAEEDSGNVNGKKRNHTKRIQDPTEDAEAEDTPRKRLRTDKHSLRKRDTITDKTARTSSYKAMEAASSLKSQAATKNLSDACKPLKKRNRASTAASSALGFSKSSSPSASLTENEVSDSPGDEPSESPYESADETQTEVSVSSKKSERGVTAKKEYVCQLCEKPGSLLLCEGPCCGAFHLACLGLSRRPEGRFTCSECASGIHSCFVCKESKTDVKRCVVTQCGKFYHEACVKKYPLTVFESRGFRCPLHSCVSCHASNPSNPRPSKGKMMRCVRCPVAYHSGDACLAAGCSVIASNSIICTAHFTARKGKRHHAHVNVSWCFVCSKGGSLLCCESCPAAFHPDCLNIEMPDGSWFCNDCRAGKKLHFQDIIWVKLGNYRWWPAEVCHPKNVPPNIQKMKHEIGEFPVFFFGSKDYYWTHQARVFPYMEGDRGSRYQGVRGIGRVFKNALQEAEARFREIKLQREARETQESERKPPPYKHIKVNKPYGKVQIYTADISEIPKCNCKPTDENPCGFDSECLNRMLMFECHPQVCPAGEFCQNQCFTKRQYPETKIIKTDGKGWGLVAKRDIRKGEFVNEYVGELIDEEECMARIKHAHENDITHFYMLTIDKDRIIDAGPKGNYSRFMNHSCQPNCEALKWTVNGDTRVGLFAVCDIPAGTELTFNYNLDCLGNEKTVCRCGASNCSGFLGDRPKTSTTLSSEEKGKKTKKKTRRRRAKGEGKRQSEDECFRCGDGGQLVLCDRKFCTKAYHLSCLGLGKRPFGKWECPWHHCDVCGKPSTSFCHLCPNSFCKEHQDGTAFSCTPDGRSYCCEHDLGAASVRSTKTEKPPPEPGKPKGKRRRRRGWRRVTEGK
Excerpt: A major challenge in screening for small molecule inhibitors is that native NSD2 requires nucleosomes as a substrate ([17]). […] Chemical libraries were screened in 3-dose point quantitative high-throughput screening (qHTS) format ([43]) with the Methyltransferase-Glo (MTase-Glo™) methyltransferase bioluminescence assay ([44]). A number of counter and orthogonal assays were also developed to characterize the hits from the primary screen. Confirmed hits were validated with a radiolabeled SAM substrate-based NSD2 activity assay and further interrogated with binding studies by surface plasmon resonance (SPR), methyltransferase profiling, and activity assessments in U-2 OS cells. […] Overall the reaction conditions were very similar.

NSD2 SET domain = target: T2, NSD2 SET domain (Homo sapiens, UniProt O96028); test: SPR Biacore 8K, single-cycle kinetics, […] model; assay type: binding
T2 construct: SET domain, residues 934-1241, N-terminal His tag, E. coli
T2 sequence (O96028 934-1241): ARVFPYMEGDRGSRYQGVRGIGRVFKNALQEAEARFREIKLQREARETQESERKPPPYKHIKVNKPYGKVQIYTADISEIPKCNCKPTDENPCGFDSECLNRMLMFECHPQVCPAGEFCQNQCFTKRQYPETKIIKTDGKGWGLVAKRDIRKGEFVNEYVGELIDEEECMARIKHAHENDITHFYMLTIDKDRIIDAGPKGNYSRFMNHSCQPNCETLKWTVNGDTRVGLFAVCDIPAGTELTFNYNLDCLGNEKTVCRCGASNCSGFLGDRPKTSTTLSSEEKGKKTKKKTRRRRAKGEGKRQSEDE

SET7/9 = target: T3, SET7/9 (Homo sapiens, UniProt Q8WTS6); test: biochemical
T3 construct: gene SETD7
T3 sequence (Q8WTS6 1-366): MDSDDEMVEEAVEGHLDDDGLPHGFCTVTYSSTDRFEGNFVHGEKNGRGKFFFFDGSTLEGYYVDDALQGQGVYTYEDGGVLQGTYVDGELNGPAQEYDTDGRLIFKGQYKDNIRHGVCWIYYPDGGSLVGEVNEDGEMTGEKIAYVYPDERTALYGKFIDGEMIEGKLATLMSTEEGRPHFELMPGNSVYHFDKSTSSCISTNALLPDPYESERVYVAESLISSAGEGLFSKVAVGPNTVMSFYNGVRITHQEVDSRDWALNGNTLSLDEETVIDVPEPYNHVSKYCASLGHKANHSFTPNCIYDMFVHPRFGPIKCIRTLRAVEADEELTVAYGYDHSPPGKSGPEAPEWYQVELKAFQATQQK

IC50 (NSD2): 15 µM
Kd (NSD2 SET domain): 8.3 µM
Structure (SMILES): CC1(C)CCC(CN2CCN(c3ccc(C(=O)NS(=O)(=O)c4ccc(NCC5CCOCC5)c([N+](=O)[O-])c4)c(Oc4cnc5[nH]ccc5c4)c3)CC2)=C(c2ccc(Cl)cc2)C1 [ABT-199]

IC50 (NSD2; inhibitor): 2.9 µM
IC50 (SET7/9; read-out: DA3003-1 IC50, inhibitor): 1.4 µM
Structure (SMILES): O=C1C(Cl)=C(NCCN2CCOCC2)C(=O)c2ncccc21 [DA3003-1]

IC50 (SET7/9): 52 µM
Kd (NSD2 SET domain; immobilized SET domain, pH […] °C, […] MgCl2, […] TCEP, […] DMSO): 8.4 µM
Structure (SMILES): COc1cccc(-n2nc(C(=O)O)cc2-c2ccc(C3CCCCC3)c(Cl)c2)c1 [TC LPA5 4]
